US20110166196A1, “TREATMENT AND PROPHYLAXIS OF EPILEPSY AND FEBRILE SEIZURES” (priority 2008, published 2011)

Assays:
[1] = tested on: excitatory synapses onto CA1 hippocampal interneurons; assay: HFS-induced long-term depression (LTD) of EPSCs, whole-cell recording in hippocampal slices; format: cell-based, rat
From the text: (§1) The basic methods have been detailed previously (McMahon and Kauer, 1997). Sprague-Dawley rats (15-22 days old) were used in the majority of experiments. In addition, we used TRPV1^−/− mice (Caterina et al., 2000) and wild-type C57BL/6 mice aged between 15 and 21 days (Jackson Laboratory). The TRPV1^−/− mice we used have been backcrossed at least 10 times onto a C57BL/6 background and were obtained from homozygous breeding pairs. Control mice were therefore not littermates but were age-matched, wild-type C57BL/6 animals received from the same supplier in the same shipment. All animal protocols were approved by the Brown University Institutional Animal Care and Use Committee. For mouse experiments, only one brain slice per mouse was used for each experiment, so that reported ‘n’ numbers represent the number of animals. Animals were anaesthetized using halothane or isoflurane and quickly decapitated. The brain was rapidly removed and 300 μm thick coronal slices prepared and stored for at least one hour submerged on a net in artificial cerebrospinal fluid (ACSF) containing in mM: 119 NaCl, 26 NaHCO3, 2.5 KCl, 1.0 NaH2PO4, 2.5 CaCl2, 1.3 MgSO4 and 11 dextrose, saturated with 95% O2/5% CO2 (pH 7.4). Slices were then transferred to a submerged recording chamber and bathed in oxygenated ACSF (28-32° C.) containing elevated divalent cations to reduce epileptiform activity (4 mM CaCl2 and 4 mM MgCl2, replacing MgSO4). A surgical cut was made between the CA3 and CA1 regions. The storage of slices submerged on a net rather than in an interface chamber on filter paper may be important in maintaining slice health and improving the likelihood of observing LTD.
(§2) Slices were continuously perfused with ACSF warmed to 28-32° C. at a flow rate of 1-2 ml/min. Picrotoxin (100 μM) and D-AP5 (50 μM) were added to block GABAA receptor- and NMDAR-mediated synaptic transmission. Whole-cell patch clamp recordings were made from interneurons identified visually in the CA1 stratum radiatum of the hippocampus. […] Patch pipettes were filled with internal recording solution containing in mM: 117 cesium gluconate, 2.8 NaCl, 5 MgCl2, 20 HEPES, 2 ATP-Na^+, 0.3 GTP-Na^+ and 0.6 EGTA. In some experiments 2 μM capsazepine, 140 nM baicalein, or 250 μM GDPβS were also included in the intracellular patch pipette solution. In experiments with BAPTA-containing patch electrodes, EGTA was omitted from the intracellular solution and 25 or 40 mM BAPTA replaced a corresponding amount of cesium gluconate. EPSCs were stimulated at 0.1 Hz (100 μsec) using a bipolar stainless steel stimulating electrode placed in stratum radiatum at least 200 μm from the recorded cell. CA1 interneurons were voltage clamped at −65 mV (not corrected for the liquid junction potential, of ˜10 mV), and EPSCs were evoked by paired pulses with an interval of 50 msec (stimulus intensity typically 50-400 μA). In early experiments, we measured rectification ratios of EPSCs evoked at +40 mV/−60 mV in the presence of 50 μM D-AP5, measured at the time of peak inward synaptic current seen at −70 mV (Lei and McBain, 2004).
High-frequency stimulation was used to induce LTD (HFS; two 1 sec trains at 100 Hz, inter-train interval 20 sec, at 1.5 times test current intensity) with the neuron held in current-clamp mode, so that the HFS trains were delivered with the membrane potential free to vary. Receptor antagonists were added directly to the ACSF at known concentrations for at least 10 minutes prior to HFS. Control experiments were interleaved with those experiments using receptor antagonists or involving slices from TRPVl^−/− mice. The cell input resistance and series resistance were monitored throughout each experiment; cells were discarded if these values changed by more than 10% during the experiment.

hippocampal area CA1 = details: in vivo treatment of animals after the induction of febrile seizures; cited from earlier work
[2] = tested on: excitatory synapses onto CA1 hippocampal interneurons; assay: Drug-induced depression of EPSC amplitudes, whole-cell recording in hippocampal slices; format: cell-based, rat
From the text: as §1, §2
The maximal initial slope of fEPSPs was calculated using a LabVIEW-based program (National Instruments). The peak amplitude of each EPSC was measured by comparing a 10 msec time period immediately prior to the stimulus with the peak of the EPSC using this program as well. Occasionally polysynaptic responses were evoked, and in these cases, only the initial monosynaptic event was measured. To positively identify LTD, EPSCs measured every 10 seconds were averaged in 1 minute intervals. EPSC amplitude values were normalized to control pre-HFS EPSC amplitude values (baseline period of at least 5 minutes prior to HFS) and subjected to analysis of variance (ANOVA) repeated measures analysis with a post-hoc Dunnett's test (GraphPad Prism, Version 4).

[3] = tested on: CA1 pyramidal neurons from trpv1−/− mice; assay: Residual heat-activated current in CA1 pyramidal neurons from trpv1-/- mice; format: cell-based, mouse; details: 10 μM ruthenium red bath; trpv1−/− CA1 neurons (34.6±8.4 pA without); n=5

Nc1nc2c(ncn2[C@@H]2O[C@H](COP(=O)(O)OP(O)(O)=S)[C@@H](O)[C@H]2O)c(=O)[nH]1 [GDPβS]
cells recorded from with intracellular GDPβS that had LTD ([1]; patch pipette solution containing 250 μM GDPβS): 6 of 10
EPSC amplitudes 15-20 minutes post-HFS with intracellular GDPβS ([1]; patch pipette solution containing 250 μM GDPβS, n=10): 88.2±10.6 % of control values before HFS

COC(=O)[C@@H](N)CCCNC(=N)N[N+](=O)[O-] [L-NAME]
EPSC amplitudes 15-20 minutes post-HFS ([1]; 200 μM L-NAME bath applied 10 minutes prior to HFS, n=5): 46.3±10.4 % of control values before HFS

Cc1c(C(=O)NN2CCCCC2)nn(-c2ccc(Cl)cc2Cl)c1-c1ccc(Cl)cc1 [SR141716A]
emergence of long-term limbic hyperexcitability (hippocampal area CA1): prevented the emergence of long-term limbic hyperexcitability
hyperexcitability in hippocampal area CA1 (hippocampal area CA1): reduced hyperexcitability in hippocampal area CA1
EPSC amplitudes 15-20 minutes post-HFS ([1]; SR141716A 2-5 μM bath-applied, n=10, control LTD 62.0±5.3%): 110.6±19.3 % of control values before HFS
EPSC amplitudes after 10-15 minutes in capsaicin and in the presence of SR141716A ([2]; SR141716A 2 μM pretreatment, capsaicin 1 μM, n=6): 102.8±9.2 % of pre-capsaicin control values
EPSC amplitudes after 10-15 minutes in 12-(S)-HPETE and in the presence of SR141716A ([2]; SR141716A 2 μM, 12-(S)-HPETE 100 nM, n=5): 106.9±5.5 % of pre-12-(S)-HPETE control values

Cc1c(C(=O)c2cccc3ccccc23)c2cccc3c2n1[C@H](CN1CCOCC1)CO3 [WIN 55,212-2]
EPSC amplitudes 15-20 minutes post-HFS ([1]; pre-treatment with WIN 55,212-2 1 μM for at least ten minutes, n=12): 51.3±7.5 % of control values in WIN55,212-2 before HFS
EPSC amplitudes after 10-15 minutes in WIN 55,212-2 alone ([2]; WIN 55,212-2 1 μM bath-applied, n=14): 66.1±7.9 % of pre-drug control values

O=c1cc(-c2ccccc2)oc2cc(O)c(O)c(O)c12 [baicalein]
cells with potentiation (greater than 125% of control 20 minutes following the HFS) ([1]; baicalein 500 nM bath-applied): four of ten
EPSC amplitudes 15-20 minutes post-HFS ([1]; baicalein 500 nM bath-applied, n=10): 129.6±20.3 % of control values before HFS
cells recorded from with intracellular baicalein that had LTD ([1]; patch pipette solution containing 140 nM baicalein): 4 of 12
EPSC amplitudes 15-20 minutes post-HFS with intracellular baicalein ([1]; patch pipette solution containing 140 nM baicalein, n=12): 110.8±15.4 % of control values before HFS

N.N.N.N.N.N.N.N.N.N.N.N.N.N.[Cl-].[Cl-].[Cl-].[Cl-].[Cl-].[Cl-].[O-2].[O-2].[Ru+3].[Ru+3].[Ru+4] [ruthenium red]
peak heat-evoked inward current in ruthenium red [3]: 9.3±7.7 pA
